Here are results for one molecule from patent publication US9226926B2, “Therapeutic agent for lower urinary tract disease” (N.M.A. Co., Ltd., priority 2013, dated 2016).

Holding throughout (format): in vivo, SD rats
In one assay the test system is MPO. In words: MPO inflammation marker in bladder tissue by ELISA. To be noted: rebamipide group vs CYP group. Here is the method: (§1) To 12-week old male SD rats, cyclophosphamide (150 mg/kg) was intraperitoneally administered under isoflurane anesthetization. Immediately after that, rebamipide (1 mM or 10 mM, 300 μL) or vehicle was injected into the bladder, and the rats were held in the supine position for 1 hour. (3) TNFα, IL-6 and IL-1β which are inflammatory cytokines in bladder tissue were measured by RT-PCR, and an inflammation marker, MPO, was measured by ELISA.
For orientation: An ELISA detects its analyte on a solid surface through an enzyme-linked reagent.

The test system of assay [1] is rat model of chronic cystitis. In words: H&E staining of removed bladder to score the degree of inflammation. Here is the method: To 12-week old male SD rats, cyclophosphamide (150 mg/kg) was intraperitoneally administered under isoflurane anesthetization. Immediately after that, rebamipide (1 mM or 10 mM, 300 μL) or vehicle was injected into the bladder, and the rats were held in the supine position for 1 hour. (2) After two days, the bladder was removed, and H&E stained to score the degree of inflammation

For a further assay, the system named is IL-1β. In words: IL-1β in bladder tissue by RT-PCR. To be noted: rebamipide group vs CYP group. Here is the method: as §1
The test system of assay [2] is rat model of chronic cystitis. The experiment in a line: Conscious cystometrography in rat model of chronic cystitis (cyclophosphamide). The conditions noted are these: 300 μL into the bladder, cyclophosphamide 150 mg/kg i.p., after two days. Here is the method: In addition, experiments were performed for studying effects of the present invention on cystitis using a rat model of chronic cystitis. To 12-week old male SD rats, cyclophosphamide (150 mg/kg) was intraperitoneally administered under isoflurane anesthetization. Immediately after that, rebamipide (1 mM or 10 mM, 300 μL) or vehicle was injected into the bladder, and the rats were held in the supine position for 1 hour. (1) After two days, conscious cystometrography was performed (the saline perfusion flow rate: 0.04 ml/min) was performed.

The test system of the next assay is TNFα. The experiment in a line: TNFα in bladder tissue by RT-PCR. The conditions noted are these: rebamipide group vs CYP group. Here is the method: as §1
A further assay deals with IL-6. The experiment in a line: IL-6 in bladder tissue by RT-PCR. To be noted: rebamipide group vs CYP group. The procedure: as §1
The mark [3] stands for this setting: rebamipide group vs CYP group, after two days.

Turning to `O=C(NC(Cc1cc(=O)[nH]c2ccccc12)C(=O)O)c1ccc(Cl)cc1` (stereo not drawn) [rebamipide, 2-(4-chlorbenzoylamino)-3-(2-quinolone-4-yl)propionic acid], the “level of MPO in the bladder tissue” value in the assay on MPO was “increase was suppressed”. Besides, the invasive inflammatory cells result in assay [1] (setting [3]) is on record as “significantly reduced”. In assay [1] (setting [3]), the submucosal edema result is recorded as “significantly reduced”. Moreover, the bladder inflammation result in assay [1] (rebamipide injected into the bladder, summary) is reported as “suppressed”. In addition, the “level of IL-1β in the bladder tissue” value in the assay with IL-1β is on record as “increase was suppressed”. The results for the urination interval in assay [2] (1 mM) and in assay [2] (10 mM) were 14.4 ± 2.1 min and 21.1 ± 2.5 min, respectively. Also, in the assay with TNFα, the “level of TNFα in the bladder tissue” value is recorded as “increase was suppressed”. The “level of IL-6 in the bladder tissue” value in the assay on IL-6 is on record as “increase was suppressed”.
